Data published in patent US12448392B2, “Spiropiperidine derivatives” (89BIO LTD, priority 2016, dated 2025).
Structures can show the parent of a compound that is named as a salt.

biological target: T1, recombinant human baculovirus-expressed GST-tagged FASN (Homo sapiens, UniProt P49327); assay: biochemical; conditions: not given
T1 construct: GST
T1 sequence (P49327 whole entry): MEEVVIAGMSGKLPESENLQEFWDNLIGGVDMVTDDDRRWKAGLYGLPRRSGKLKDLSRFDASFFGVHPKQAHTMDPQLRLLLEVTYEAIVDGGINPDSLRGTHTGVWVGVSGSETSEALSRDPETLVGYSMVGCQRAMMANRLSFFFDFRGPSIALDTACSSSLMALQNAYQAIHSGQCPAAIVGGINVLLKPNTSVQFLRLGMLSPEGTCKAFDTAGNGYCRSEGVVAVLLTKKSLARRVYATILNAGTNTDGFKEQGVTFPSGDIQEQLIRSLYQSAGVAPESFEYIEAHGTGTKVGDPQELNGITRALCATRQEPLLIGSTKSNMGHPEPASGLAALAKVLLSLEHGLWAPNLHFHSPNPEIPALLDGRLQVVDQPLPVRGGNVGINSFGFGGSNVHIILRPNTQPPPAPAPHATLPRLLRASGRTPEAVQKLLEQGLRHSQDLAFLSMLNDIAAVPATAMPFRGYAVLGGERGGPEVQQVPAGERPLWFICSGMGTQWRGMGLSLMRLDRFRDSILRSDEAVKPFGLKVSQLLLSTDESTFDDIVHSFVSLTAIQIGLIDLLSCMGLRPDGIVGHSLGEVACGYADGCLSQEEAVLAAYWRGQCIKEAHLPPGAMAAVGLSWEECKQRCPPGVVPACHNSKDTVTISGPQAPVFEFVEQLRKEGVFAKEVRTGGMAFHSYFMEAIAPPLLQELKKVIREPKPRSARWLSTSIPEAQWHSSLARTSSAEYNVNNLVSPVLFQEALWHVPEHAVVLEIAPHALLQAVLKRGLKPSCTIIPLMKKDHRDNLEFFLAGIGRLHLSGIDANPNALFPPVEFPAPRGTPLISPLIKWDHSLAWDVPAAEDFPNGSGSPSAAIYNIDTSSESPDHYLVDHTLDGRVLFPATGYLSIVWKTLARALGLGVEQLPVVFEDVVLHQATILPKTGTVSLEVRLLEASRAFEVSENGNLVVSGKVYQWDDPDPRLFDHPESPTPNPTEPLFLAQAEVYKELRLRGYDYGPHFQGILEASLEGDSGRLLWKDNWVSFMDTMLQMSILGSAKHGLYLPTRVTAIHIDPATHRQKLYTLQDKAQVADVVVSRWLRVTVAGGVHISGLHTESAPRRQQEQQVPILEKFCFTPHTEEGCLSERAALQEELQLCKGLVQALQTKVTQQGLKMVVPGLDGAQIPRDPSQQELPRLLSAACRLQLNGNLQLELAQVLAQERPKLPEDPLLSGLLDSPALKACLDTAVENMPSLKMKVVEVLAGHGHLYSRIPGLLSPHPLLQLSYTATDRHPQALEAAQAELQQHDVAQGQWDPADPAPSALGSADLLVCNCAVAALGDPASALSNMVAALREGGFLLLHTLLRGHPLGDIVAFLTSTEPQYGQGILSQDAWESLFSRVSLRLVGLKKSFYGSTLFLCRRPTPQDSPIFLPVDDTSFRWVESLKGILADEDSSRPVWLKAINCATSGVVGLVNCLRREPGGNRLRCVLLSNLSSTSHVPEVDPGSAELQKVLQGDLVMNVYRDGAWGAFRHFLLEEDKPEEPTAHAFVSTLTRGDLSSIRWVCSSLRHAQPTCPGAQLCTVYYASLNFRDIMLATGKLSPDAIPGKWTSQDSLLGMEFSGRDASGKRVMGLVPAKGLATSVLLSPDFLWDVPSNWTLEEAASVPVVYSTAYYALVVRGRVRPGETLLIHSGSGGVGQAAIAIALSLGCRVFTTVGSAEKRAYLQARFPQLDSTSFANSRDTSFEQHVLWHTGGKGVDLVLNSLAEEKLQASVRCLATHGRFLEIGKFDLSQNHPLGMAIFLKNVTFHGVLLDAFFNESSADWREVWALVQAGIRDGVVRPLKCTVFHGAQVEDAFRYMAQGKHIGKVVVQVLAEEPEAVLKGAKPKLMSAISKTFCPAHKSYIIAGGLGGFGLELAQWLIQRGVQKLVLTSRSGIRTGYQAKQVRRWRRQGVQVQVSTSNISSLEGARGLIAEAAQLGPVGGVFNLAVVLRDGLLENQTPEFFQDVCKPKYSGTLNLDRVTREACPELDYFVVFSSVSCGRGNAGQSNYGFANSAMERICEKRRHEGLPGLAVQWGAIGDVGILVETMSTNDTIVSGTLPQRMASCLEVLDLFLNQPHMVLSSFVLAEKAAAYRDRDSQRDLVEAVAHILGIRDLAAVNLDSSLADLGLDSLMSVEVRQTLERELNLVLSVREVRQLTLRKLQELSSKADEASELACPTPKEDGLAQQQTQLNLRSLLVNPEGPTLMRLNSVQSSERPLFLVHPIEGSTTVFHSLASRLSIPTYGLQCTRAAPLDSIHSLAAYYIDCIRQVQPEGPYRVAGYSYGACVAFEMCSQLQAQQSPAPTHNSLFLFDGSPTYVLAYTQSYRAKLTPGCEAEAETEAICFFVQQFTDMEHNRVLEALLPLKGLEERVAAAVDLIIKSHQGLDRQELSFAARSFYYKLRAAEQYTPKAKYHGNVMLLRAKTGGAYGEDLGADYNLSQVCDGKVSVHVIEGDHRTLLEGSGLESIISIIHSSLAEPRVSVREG

Compound | IC50 [nM]
CCC(=O)N1CCC2(CC1)OCc1cc(-c3ccc4c(C)nccc4c3)ccc1O2 [Example 21, 1-[6-(1-Methyl-6-isoquinolyl)spiro[4H-1,3-benzodioxine-2,4′-piperidine]-1′-yl]propan-1-one] | 1 to 99
Cc1nccc2cc(-c3ccc4c(c3)COC3(CCN(C(=O)C5CC5)CC3)O4)ccc12 [Example 22, Cyclopropyl-[6-(1-methyl-6-isoquinolyl)spiro[4H-1,3-benzodioxine-2,4′-piperidine]-1′-yl]methanone] | 1 to 99
Cc1nccc2cc(-c3ccc4c(c3)COC3(CCN(C(=O)[C@H]5CCCO5)CC3)O4)ccc12 [Example 23, [6-(1-Methyl-6-isoquinolyl)spiro[4H-1,3-benzodioxine-2,4′-piperidine]-1′-yl]-[(2R)-tetrahydrofuran-2-yl]methanone] | 1 to 99

same assay, conditions: 5 nM FASN, 150 μM NADPH, 10 μM acetyl-CoA, 25 μM malonyl-CoA, 90 minutes incubation; read-out: IC50 data for Compounds of Formula I, Activity

Compound | IC50 [nM]
Cc1nccc2cc(-c3ccc4c(c3)CCC3(CCN(C(=O)[C@H]5CCCO5)CC3)O4)ccc12 [Example 1, [6-(1-Methyl-6-isoquinolyl)spiro[chromane-2,4′-piperidine]-1′-yl]-[(2R)-tetrahydrofuran-2-yl]methanone, HCl] | 1 to 99
CCC(=O)N1CCC2(CCc3cc(-c4cnc5ccccc5c4C)ccc3O2)CC1 [Example 2, 1-[6-(4-Methyl-3-quinolyl)spiro[chromane-2,4′-piperidine]-1′-yl]propan-1-one, HCl] | 1 to 99
Cc1c(-c2ccc3c(c2)CCC2(CCN(C(=O)C4CC4)CC2)O3)cnc2ccccc12 [Example 3, Cyclopropyl-[6-(4-methyl-3-quinolyl)spiro[chromane-2,4′-piperidine]-1′-yl]-methanone HCl] | 1 to 99
Cc1c(-c2ccc3c(c2)CCC2(CCN(C(=O)[C@H]4CCCO4)CC2)O3)cnc2ccccc12 [Example 4, [6-(4-Methyl-3-quinolyl)spiro[chromane-2,4′-piperidine]-1′-yl]-[(2R)-tetrahydrofuran-2-yl]methanone, HCl] | 1 to 99
O=C([C@H]1CCCO1)N1CCC2(CCc3cc(-c4ccc5c(C6CC6)nccc5c4)ccc3O2)CC1 [Example 5, [6-(1-Cyclopropyl-6-isoquinolyl)spiro[chromane-2,4′-piperidine]-1′-yl]-[(2R)-tetrahydrofuran-2-yl]methanone] | 1 to 99
CCC(=O)N1CCC2(CCc3cc(-c4ccc5cccnc5c4C)ccc3O2)CC1 [Example 6, 1-[6-(8-Methyl-7-quinolyl)spiro[chromane-2,4′-piperidine]-1′-yl]propan-1-one] | 1 to 99
Cc1c(-c2ccc3c(c2)CCC2(CCN(C(=O)C4CC4)CC2)O3)ccc2cccnc12 [Example 7, Cyclopropyl-[6-(8-methyl-7-quinolyl)spiro[chromane-2,4′-piperidine]-1′-yl]methanone, HCl] | 1 to 99
Cc1c(-c2ccc3c(c2)CCC2(CCN(C(=O)[C@H]4CCCO4)CC2)O3)ccc2cccnc12 [Example 8, [6-(8-Methyl-7-quinolyl)spiro[chromane-2,4′-piperidine]-1′-yl]-[(2R)-tetrahydrofuran-2-yl]methanone, HCl] | 1 to 99
CCC(=O)N1CCC2(CCc3cc(-c4ccc5cccnc5c4Cl)ccc3O2)CC1 [Example 9, 1-[6-(8-chloro-7-quinolyl)spiro[chromane-2,4′-piperidine]-1′-yl]propan-1-one] | 1 to 99
O=C(C1CC1)N1CCC2(CCc3cc(-c4ccc5cccnc5c4Cl)ccc3O2)CC1 [Example 10, [6-(8-Chloro-7-quinolyl)spiro[chromane-2,4′-piperidine]-1′-yl]-cyclopropyl-methanone, HCl] | 1 to 99
O=C([C@H]1CCCO1)N1CCC2(CCc3cc(-c4ccc5cccnc5c4Cl)ccc3O2)CC1 [Example 11, [6-(8-Chloro-7-quinolyl)spiro[chromane-2,4′-piperidine]-1′-yl]-[(2R)-tetrahydrofuran-2-yl]methanone, HCl] | 1 to 99
CCC(=O)N1CCC2(CCc3cc(-c4cnc5c(C)cccc5c4)ccc3O2)CC1 [Example 12, 1-[6-(8-Methyl-3-quinolyl)spiro[chromane-2,4′-piperidine]-1′-yl]propan-1-one] | 1 to 99
Cc1cccc2cc(-c3ccc4c(c3)CCC3(CCN(C(=O)C5CC5)CC3)O4)cnc12 [Example 13, Cyclopropyl-[6-(8-methyl-3-quinolyl)spiro[chromane-2,4′-piperidine]-1′-yl]-methanone, HCl] | 100 to 999
Cc1cccc2cc(-c3ccc4c(c3)CCC3(CCN(C(=O)[C@H]5CCCO5)CC3)O4)cnc12 [Example 14, [6-(8-Methyl-3-quinolyl)spiro[chromane-2,4′-piperidine]-1′-yl]-[(2R)-tetrahydrofuran-2-yl]methanone, HCl] | 1 to 99
COc1c(-c2ccc3c(c2)CCC2(CCN(C(=O)C4CC4)CC2)O3)ccc2cccnc12 [Example 15, Cyclopropyl-[6-(8-methoxy-7-quinolyl)spiro[chromane-2,4′-piperidine]-1′-yl]-methanone, HCl] | 1 to 99
COc1c(-c2ccc3c(c2)CCC2(CCN(C(=O)[C@H]4CCCO4)CC2)O3)ccc2cccnc12 [Example 16, [6-(8-Methoxy-7-quinolyl)spiro[chromane-2,4′-piperidine]-1′-yl]-[(2R)-tetra-hydrofuran-2-yl]methanone HCl] | 1 to 99
CCC(=O)N1CCC2(CCc3cc(-c4cc(C)c5ncccc5c4)ccc3O2)CC1 [Example 17, 1-[6-(8-Methyl-6-quinolyl)spiro[chromane-2,4′-piperidine]-1′-yl]propan-1-one, HCl] | 100 to 999
Cc1cc(-c2ccc3c(c2)CCC2(CCN(C(=O)C4CC4)CC2)O3)cc2cccnc12 [Example 18, Cyclopropyl-[6-(8-methyl-6-quinolyl)spiro[chromane-2,4′-piperidine]-1′-yl]methanone HCl] | 100 to 999
CCC(=O)N1CCC2(CCc3cc(-c4ccc5cccnc5c4OC)ccc3O2)CC1 [Example 19, 1-[6-(8-Methoxy-7-quinolyl)spiro[chromane-2,4′-piperidine]-1′-yl]propan-1-one] | 1 to 99
Cc1cc(-c2ccc3c(c2)CCC2(CCN(C(=O)[C@H]4CCCO4)CC2)O3)cc2cccnc12 [Example 20, [6-(8-Methyl-6-quinolyl)spiro[chromane-2,4′-piperidine]-1′-yl]-[(2R)-tetrahydrofuran-2-yl]methanone] | 1 to 99
CCC(=O)N1CCC2(CCc3cc(-c4ccc5c(C)nccc5c4)ccc3O2)CC1 [Example 24, 1-[6-(1-Methyl-6-isoquinolyl)spiro[chromane-2,4′-piperidine]-1′-yl]propan-1-one] | 1 to 99
Cc1nccc2cc(-c3ccc4c(c3)CCC3(CCN(C(=O)C5CC5)CC3)O4)ccc12 [Example 25, Cyclopropyl-[6-(1-methyl-6-isoquinolyl)spiro[chromane-2,4′-piperidine]-1′-yl]methanone] | 100 to 999
CCC(=O)N1CCC2(CCc3cc(-c4ccc5nccn5c4C)ccc3O2)CC1 [Example 26, 1-[6-(5-methylimidazo[1,2-a]pyridin-6-yl)spiro[chromane-2,4′-piperidine]-1′-yl]propan-1-one] | 100 to 999
Cc1c(-c2ccc3c(c2)CCC2(CCN(C(=O)C4CC4)CC2)O3)ccc2nccn12 [Example 27, Cyclopropyl-[6-(5-methylimidazo[1,2-a]pyridin-6-yl)spiro[chromane-2,4′-piperidine]-1′-yl]methanone] | 100 to 999
